From patent US12473282B2, “Biphenyl fluorine double bond derivative, preparation method therefor, and pharmaceutical application thereof” (Abbisko Therapeutics Co., Ltd., priority 2020, dated 2025)

Test: Jurkat reporter gene cellular assay
Assay type: cell-based
Details: Homo sapiens; Jurkat/NF-κB-luc/PD1 + Raji-PD-L1 coculture, OKT3 1 μg/mL, 6 hrs, activation fold; read-out: Cell Activity EC50
Experimental: The effect of compounds of the examples of the present invention and positive compounds on the interaction between PD-1 and PD-L1 expressed on cell surfaces, and the related influence on T cell functions, were determined by a Jurkat reporter gene cellular assay.
Briefly, the reporter gene plasmid of NF-κB-luc and the plasmid of human PD-1 were transfected into Jurkat cells to establish a stably transfected cell line capable of stably expressing both PD-1 and NF-κB-Luc reporter genes; the expression level of PD-1 on the cell surface was confirmed by flow cytometry; and the expression of the reporter gene was confirmed via the response of the reporter gene stimulated by OKT-3 and Raiji cells.
In addition, the plasmid of human PD-L1 was transfected into Raji cells to obtain a cell line capable of stably expressing PD-L1. Jurkat/NF-κB-luc/PD1 cells and Raji-PD-L1 cells were then cocultured and stimulated with OKT-3. On this basis, the compounds were added, and the enhancement of the signal pathway of T cell activation by the inhibitory effect of the compounds on the interaction between PD-1 and PD-L1 was evaluated by readings of reporter gene responses. The specific experimental process was as follows: • 1. 30 μL of compound or antibody solution was added to each well of a white 96-well plate (corning, 3610) at different diluted concentrations, and 10 μL of OKT3 (Biolegend, 317326) was then added (the final concentration of OKT3: 1 μg/mL); • 2. 20 μL of Raji-PD-L1 cell suspension was added to each well with 5*10^4 cells for each well, and was incubated in an incubator for 20 min; • 3. 20 μL of Jurkat/NF-Kb-luc/PD-1 cell suspension was added to each well with 5*10^4 cells for each well, and well mixed, and 6 hrs later, Bright-glo (Promega, E2620) was applied and plates were read on Envision; • 4. The reading of each well treated with the compound was compared with the reading of each well treated with DMSO to obtain the activation fold of the compound; • 5. EC50 values of compounds and positive compounds of the examples of the present invention were determined by non-linear regression analysis of activation folds at different compound concentrations.

| SMILES | EC50 [nM] |
| --- | --- |
| Cc1c(/C=C(\F)c2nc3c(n2C)CCNC3)cccc1-c1cccc(NC(=O)c2nc3c(n2C)CCN(CCC24CCC(C(=O)O)(CC2)C4)C3)c1C [Example 2, (Z)-4-(2-(2-((3′-(2-fluoro-2-(1-methyl-4,5,6,7-tetrahydro-1H-imidazo [4,5-c]pyridin-2-yl)vinyl)-2,2′-dimethyl-[1,1′-biphenyl]-3-yl)carbamoyl)-1-methyl-1,4,6,7-tetrahydro-5H-imidazo[4,5-c]pyridin-5-yl)ethyl)bicyclo[2.2.1]heptane-1-carboxylic acid] | 244 |
| Cc1c(/C=C(\F)c2nc3c(n2C)CCN(C[C@@H](C)O)C3)cccc1-c1cccc(NC(=O)c2nc3c(n2C)CCN(CCC24CCC(C(=O)O)(CC2)C4)C3)c1C [Example 3, (R,Z)-4-(2-(2-((3′-(2-fluoro-2-(5-(2-hydroxypropyl)-1-methyl-4,5,6,7-tetrahydro-1H-imidazo[4,5-c]pyridin-2-yl)vinyl)-2,2′-dimethyl-[1,1′-biphenyl]-3-yl)carbamoyl)-1-methyl-1,4,6,7-tetrahydro-5H-imidazo[4,5-c]pyridin-5-yl)ethyl)bicyclo[2.2.1]heptane-1-carboxylic acid] | 95.2 |
| Cc1c(/C=C(\F)c2nc3c(n2C)CCN(C(C)C)C3)cccc1-c1cccc(NC(=O)c2nc3c(n2C)CCN(CC24CCC(C(=O)O)(CC2)C4)C3)c1C [Example 6, (Z)-4-((2-((3′-(2-fluoro-2-(5-isopropyl-1-methyl-4,5,6,7-tetrahydro-1H-imidazo[4,5-c]pyridin-2-yl)vinyl)-2,2′-dimethyl-[1,1′-biphenyl]-3-yl)carbamoyl)-1-methyl-1,4,6,7-tetrahydro-5H-imidazo[4,5-c]pyridin-5-yl)methyl)bicyclo[2.2.1]heptane-1-carboxylic acid] | 973 |
| Cc1c(/C=C(\F)c2cc(C3CC3)c(CN3CCCC[C@H]3C(=O)O)cn2)cccc1-c1cccc(NC(=O)c2nc3c(n2C)CCN(C(C)C)C3)c1C [Example 18, (S,Z)-1-((4-cyclopropyl-6-(1-fluoro-2-(3′-(5-isopropyl-1-methyl-4,5,6,7-tetrahydro-1H-imidazo[4,5-c]pyridine-2-carboxamido)-2,2′-dimethyl-[1,1′-biphenyl]-3-yl)vinyl)pyridin-3-yl)methyl)piperidine-2-carboxylic acid] | 249 |
| COc1cc(/C(F)=C/c2cccc(-c3cccc(NC(=O)c4nc5c(n4C)CCN(CCC46CCC(C(=O)O)(CC4)C6)C5)c3Cl)c2Cl)ncc1CN[C@@H](C)CO [Example 44, (S,Z)-4-(2-(2-((2,2′-dichloro-3′-(2-fluoro-2-(5-(((1-hydroxypropan-2-yl)amino)methyl)-4-methoxypyridin-2-yl)vinyl)-[1,1′-biphenyl]-3-yl)carbamoyl)-1-methyl-1,4,6,7-tetrahydro-5H-imidazo[4,5-c]pyridin-5-yl)ethyl)bicyclo[2.2.1]heptane-1-carboxylic acid] | 105 |
| COc1cc(/C(F)=C/c2cccc(-c3cccc(NC(=O)c4nc5c(n4C)CCN(CCC46CCC(C(=O)O)(CC4)C6)C5)c3Cl)c2Cl)ncc1CNCC(C)(C)O [Example 46, (Z)-4-(2-(2-((2,2′-dichloro-3′-(2-fluoro-2-(5-(((2-hydroxy-2-methylpropyl)amino)methyl)-4-methoxypyridin-2-yl)vinyl)-[1,1′-biphenyl]-3-yl)carbamoyl)-1-methyl-1,4,6,7-tetrahydro-5H-imidazo[4,5-c]pyridin-5-yl)ethyl)bicyclo[2.2.1]heptane-1-carboxylic acid] | 152 |
| COc1cc(/C(F)=C/c2cccc(-c3cccc(NC(=O)c4nc5c(n4C)CCN(CCC46CCC(C(=O)O)(CC4)C6)C5)c3Cl)c2Cl)ncc1CNC1CCC1 [Example 48, (Z)-4-(2-(2-((2,2′-dichloro-3′-(2-(5-((cyclobutylamino)methyl)-4-methoxypyridin-2-yl)-2-fluorovinyl)-[1,1′-biphenyl]-3-yl)carbamoyl)-1-methyl-1,4,6,7-tetrahydro-5H-imidazo[4,5-c]pyridin-5-yl)ethyl) bicyclo[2.2.1]heptane-1-carboxylic acid] | 80.6 |

Continued, values first:

| EC50 [nM] | SMILES |
| --- | --- |
| 289 | Cc1c(/C=C(\F)c2nc3c(n2C)CCN(C(C)C)C3)cccc1-c1cccc(NC(=O)c2nc3c(n2C)CCN(CCC24CCC(C(=O)O)(CC2)C4)C3)c1Cl [Example 4, (Z)-4-(2-(2-((2-chloro-3′-(2-fluoro-2-(5-isopropyl-1-methyl-4,5,6,7-tetrahydro-1H-imidazo[4,5-c]pyridin-2-yl)vinyl)-2′-methyl-[1,1′-biphenyl]-3-yl)carbamoyl)-1-methyl-1,4,6,7-tetrahydro-5H-imidazo [4,5-c]pyridin-5-yl)ethyl)bicyclo[2.2.1]heptane-1-carboxylic acid] |
| 719 | Cc1c(/C=C(\F)c2nc3c(n2C)CCN(CCC24CCC(C(=O)O)(CC2)C4)C3)cccc1-c1cccc(NC(=O)c2nc3c(n2C)CCN(C(C)C)C3)c1C [Example 5, (Z)-4-(2-(2-(1-fluoro-2-(3′-(5-isopropyl-1-methyl-4,5,6,7-tetrahydro-1H-imidazo[4,5-c]pyridine-2-carboxamido)-2,2′-dimethyl-[1,1′-biphenyl]-3-yl)vinyl)-1-methyl-1,4,6,7-tetrahydro-5H-imidazo[4,5-c]pyridin-5-yl)ethyl)bicyclo[2.2.1]heptane-1-carboxylic acid] |
| 192 | Cc1c(/C=C(\F)c2cc(C3CC3)c(CN3CCCC[C@H]3C(=O)O)cn2)cccc1-c1cccc(NC(=O)c2nc3c(n2C)CCN(C[C@@H](C)O)C3)c1C [Example 19, (S)-1-((4-cyclopropyl-6-((Z)-1-fluoro-2-(3′-(5-((R)-2-hydroxypropyl)-1-methyl-4,5,6,7-tetrahydro-1H-imidazo[4,5-c]pyridine-2-carboxamido)-2,2′-dimethyl-[1,1′-biphenyl]-3-yl)vinyl)pyridin-3-yl)methyl)] |
| 118 | COc1cc(/C(F)=C/c2cccc(-c3cccc(NC(=O)c4nc5c(n4C)CCN(CCC46CCC(C(=O)O)(CC4)C6)C5)c3Cl)c2Cl)ncc1CN1CC(O)C1 [Example 42, (Z)-4-(2-(2-((2,2′-dichloro-3′-(2-fluoro-2-(5-((3-hydroxyazetidin-1-yl)methyl)-4-methoxypyridin-2-yl)vinyl)-[1,1′-biphenyl]-3-yl)carbamoyl)-1-methyl-1,4,6,7-tetrahydro-5H-imidazo[4,5-c]pyridin-5-yl)ethyl)bicyclo[2.2.1]heptane-1-carboxylic acid] |
| 137 | COc1cc(/C(F)=C/c2cccc(-c3cccc(NC(=O)c4nc5c(n4C)CCN(CCC46CCC(C(=O)O)(CC4)C6)C5)c3Cl)c2Cl)ncc1CNCCCO [Example 43, (Z)-4-(2-(2-((2,2′-dichloro-3′-(2-fluoro-2-(5-(((3-hydroxypropyl)amino)methyl)-4-methoxypyridin-2-yl)vinyl)-[1,1′-biphenyl]-3-yl)carbamoyl)-1-methyl-1,4,6,7-tetrahydro-5H-imidazo[4,5-c]pyridin-5-yl)ethyl)bicyclo[2.2.1]heptane-1-carboxylic acid] |
| 114 | COc1cc(/C(F)=C/c2cccc(-c3cccc(NC(=O)c4nc5c(n4C)CCN(CCC46CCC(C(=O)O)(CC4)C6)C5)c3Cl)c2Cl)ncc1CN[C@H]1C[C@@H](O)C1 [Example 45, 4-(2-(2-((2,2′-dichloro-3′-((Z)-2-fluoro-2-(5-((((1S,3S)-3-hydroxycyclobutyl)amino)methyl)-4-methoxypyridin-2-yl)vinyl)-[1,1′-biphenyl]-3-yl)carbamoyl)-1-methyl-1,4,6,7-tetrahydro-5H-imidazo[4,5-c]pyridin-5-yl)ethyl)bicyclo[2.2.1]heptane-1-carboxylic acid] |
| 147 | COc1cc(/C(F)=C/c2cccc(-c3cccc(NC(=O)c4nc5c(n4C)CCN(CCC46CCC(C(=O)O)(CC4)C6)C5)c3Cl)c2Cl)ncc1CNC1CC1 [Example 47, (Z)-4-(2-(2-((2,2′-dichloro-3′-(2-(5-((cyclopropylamino)methyl)-4-methoxypyridin-2-yl)-2-fluorovinyl)-[1,1′-biphenyl]-3-yl)carbamoyl)-1-methyl-1,4,6,7-tetrahydro-5H-imidazo[4,5-c]pyridin-5-yl)ethyl) bicyclo[2.2. l]heptane-1-carboxylic acid] |
| 90.1 | COc1cc(/C(F)=C/c2cccc(-c3cccc(NC(=O)c4nc5c(n4C)CCN(CCC46CCC(C(=O)O)(CC4)C6)C5)c3Cl)c2Cl)ncc1CNC1CCCC1 [Example 51, (Z)-4-(2-(2-((2,2′-dichloro-3′-(2-(5-((cyclopentylamino)methyl)-4-methoxypyridin-2-yl)-2-fluorovinyl)-[1,1′-biphenyl]-3-yl)carbamoyl)-1-methyl-1,4,6,7-tetrahydro-5H-imidazo[4,5-c]pyridin-5-yl)ethyl) bicyclor[2.2.1]heptane-1-carboxylic acid] |
